Assay results from patent US5260197A, “L-fucose dehydrogenase, a process for production thereof, quantitative assay for L-fucose using said enzyme and a kit for quantitative assay” (Noda Institute for Scientific Research, priority 1988, dated 1993).
Like-named read-outs stand apart in the source and are kept apart here.

Legend:
[1] = target: T1, L-fucose dehydrogenase (L-FDH) (Pseudomonas sp, UniProt Q52472); type: biochemical; details: for Residual Activity (%): inhibitor or metal salt 2 mM in reaction solution, None = 100
T1 construct: L-FDH was accumulated in the cell portion; made in house; host or cells: Pseudomonas sp; No. 1143 (FERM BP-2056), the natural producing strain isolated from soil; enzyme purified from its cells, not recombinant
T1 sequence (Q52472 1-329): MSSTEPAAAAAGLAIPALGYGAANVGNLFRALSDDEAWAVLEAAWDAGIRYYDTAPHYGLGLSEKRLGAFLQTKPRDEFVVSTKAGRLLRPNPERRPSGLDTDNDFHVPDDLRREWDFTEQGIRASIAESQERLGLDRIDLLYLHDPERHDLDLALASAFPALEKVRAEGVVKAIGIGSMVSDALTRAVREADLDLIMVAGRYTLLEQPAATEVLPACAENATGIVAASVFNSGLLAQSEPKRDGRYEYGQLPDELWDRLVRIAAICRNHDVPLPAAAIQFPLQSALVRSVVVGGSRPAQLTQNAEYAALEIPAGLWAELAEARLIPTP
Description: (§1) To 2.5 ml of Tris-imidazole-sodium acetate buffer solution (solution containing 0.12 M each is adjusted to pH of 9.5 with 4 N NaOH) is added 0.2 ml of 15 mM NADP^+ solution After keeping at 37° C. for 5 minutes, 0.1 ml of an enzyme solution is added and 0.2 ml of 150 mM L-fucose solution is further added to the system to initiate the reaction. Immediately thereafter, the reaction mixture is transferred to a cell for measurement of absorbance (1 cm light path) kept at 37° C. and absorbance is measured at the wavelength of 340 nm for 2 minutes or, if necessary, over a longer time period. One unit is an amount of enzyme that produces 1 μmole of NADPH for one minute.

[2] = target: T1, L-fucose dehydrogenase (L-FDH); test: Optimum pH and temperature, pH stability and thermal stability of L-FDH; type: biochemical, Pseudomonas sp. No. 1143
Description: By heat treatment at 30° C. for 60 minutes, the enzyme is stable at a pH value of 8.0 to 10.5 but is unstable at a pH value below 6.0.
as §1

[3] = Polyacrylamide gel isoelectrofocusing of L-FDH; type: physicochemical, Pseudomonas sp. No. 1143
[4] = target: T1, L-fucose dehydrogenase (L-FDH); test: L-FDH substrate and coenzyme specificity (determination of activity, NADPH at 340 nm); type: biochemical, Pseudomonas sp. No. 1143; details: for coenzyme requirement (relative activity): NADP+ = 100%, L-fucose as substrate; for specificity of the enzyme to substrate sugar (relative activity): L-fucose = 100%, NADP+ as coenzyme
Description: As shown in the following reaction equation, the enzyme oxidizes L-fucose to L-fuconolactone in the presence of L-fucose and NADP+ and at the same time reduces NADP^+ to NADPH.
Furthermore, the enzyme requires NADP^+ (100%) as coenzyme but reacts very little with NAD^+ (1%).
as §1

[5] = metal salts and inhibitors, 2 mM

c1ccc(-c2ccccn2)nc1 [α,α'-dipyridyl]
inhibition and activation of enzyme activity [1, 5]: not observed

L-fucose dehydrogenase [L-FDH]
pH at which the enzyme is unstable ([2]; heat treatment at 30° C. for 60 minutes): below 6.0
temperature up to which the enzyme is stable ([2]; heat treatment for 10 minutes, FIG. 4): up to 40 °C
isoelectric point [3]: 5.2

O=S(=O)([O-])[O-].[Cd+2] [CdSO4]
Residual Activity (%) [1]: 2%

O=C(O)CN(CCN(CC(=O)O)CC(=O)O)CC(=O)O [EDTA]
inhibition and activation of enzyme activity [1]: not observed

O=S(=O)([O-])[O-].[Cu+2] [CuSO4]
inhibition and activation of enzyme activity [1, 5]: not observed

NC(=O)c1ccc[n+]([C@@H]2O[C@H](COP(=O)([O-])OP(=O)(O)OC[C@H]3O[C@@H](n4cnc5c(N)ncnc54)[C@H](O)[C@@H]3O)[C@@H](O)[C@H]2O)c1 [NAD^+, nicotinamide adenine dinucleotide]
coenzyme requirement (relative activity) [4]: 1%

C[C@H](O)[C@@H](O)[C@@H](O)[C@H](O)C=O [L-fucose]
specificity of the enzyme to substrate sugar (relative activity) [4]: 100%

NC(=O)CI [Iodoacetamide]
Residual Activity (%) [1]: 91%

O=C[C@@H](O)[C@H](O)[C@H](O)CO [D-arabinose]
specificity of the enzyme to substrate sugar (relative activity) [4]: 1%

O=C[C@@H](O)[C@H](O)[C@H](O)[C@@H](O)CO [L-galactose]
specificity of the enzyme to substrate sugar (relative activity) [4]: 96%

O=S(=O)([O-])[O-].[Mg+2] [MgSO4]
inhibition and activation of enzyme activity [1, 5]: not observed

O=C(O)c1cc[c]([Hg][Cl])cc1 [PCMB]
Residual Activity (%) [1]: 18%

[Ca+2].[Cl-].[Cl-] [CaCl2]
inhibition and activation of enzyme activity [1, 5]: not observed

[Cl][Hg][Cl] [HgCl2]
Residual Activity (%) [1]: 2%

[N-]=[N+]=[N-].[Na+] [NaN3]
inhibition and activation of enzyme activity [1, 5]: not observed

O=S(=O)([O-])[O-].[Zn+2] [ZnSO4]
Residual Activity (%) [1]: 81%

O=S(=O)([O-])[O-].[Ni+2] [NiSO4]
inhibition and activation of enzyme activity [1, 5]: not observed

NC(=O)c1ccc[n+]([C@@H]2O[C@H](COP(=O)([O-])OP(=O)(O)OC[C@H]3O[C@@H](n4cnc5c(N)ncnc54)[C@H](OP(=O)(O)O)[C@@H]3O)[C@@H](O)[C@H]2O)c1 [NADP^+, oxidized nicotinamide adenine dinucleotide phosphate]
coenzyme requirement (relative activity) [4]: 100%

c1cnc2c(c1)ccc1cccnc12 [o-phenanthroline]
inhibition and activation of enzyme activity [1, 5]: not observed
